From a melting point compilation (Tetko et al.; mined from patent text by program, amines drawn as free bases though some values may be those of a salt) come the findings set out here.

Each structure is given as a SMILES string.

A word on the melting point: it is the temperature of the solid-liquid transition.

In the case of `CCCCOc1ccc(Cc2cnc(N)nc2N)cc1OC`, the melting point is 143 to 147 °C. For `O=c1[nH]nc2c3c(cccc13)N=CN2` the value was greater than 300 °C.

Turning to `CNc1nc(C)c(C(=O)c2ccc(Cl)c([N+](=O)[O-])c2)s1`, the melting point fell in the range of 220 to 232 °C. For `CCCc1c(C(=O)NC2CC2)nnn1-c1ccc(C(=O)NCC)cc1O` the value was 203 °C; for `CCCCN(CC)c1nc(C)[nH]c2c(-c3ccc(Cl)cc3Cl)nc(C)c1-2`, 94 to 95 °C; for `CCC(CC)n1ncn(-c2ccc(N3CCN(c4ccc5c(=O)n([C@H](C)[C@](O)(Cn6cncn6)c6ccc(F)cc6F)cnc5c4)CC3)cc2)c1=O`, 208 to 210 °C.

`Cc1cccc(-c2c[nH]nc2-c2ccnc(-c3ccc(OCC(=O)N4CCOCC4)cc3)c2)n1` registered a melting point of 170 °C. For `CCC1=NC2(O)c3cc(-c4ccc(C(F)(F)F)cc4)ccc3CC2S1` (stereo not drawn) the value was 145 °C; for `Cc1nc2sc(C)c(C)n2c(=O)c1CCN1CCC(C(=O)c2ccc(F)cc2)CC1`, 159 °C. `CCCCc1c2c(nc3cc(F)ccc13)-c1cc3c(c(=O)n1C2)COC(=O)CC3(O)CC` (stereo not drawn): the melting point lay in the range of 235 to 236 °C. For `O=C(/C=C/c1cccc(S(=O)(=O)N2CCN(c3cccc([N+](=O)[O-])c3)CC2)c1)NO`, the melting point was determined as 162 °C. `CCOC(=O)CSc1nnc(-c2ccc3c(c2)CCO3)o1` gave a melting point of 92 to 93 °C. The same measure for `CCOC(=O)C(=O)CC(=O)c1cn(Cc2ccc(F)cc2)c2ccc(F)cc2c1=O`: 152 to 153 °C; for `N#CC(C#N)=C1N(CCCN2CCCCC2)CCN1CCN1CCCCCC1`: 80 to 86 °C; for `CN(C)C=Nc1[nH]nc(NCCNC(=O)OC(C)(C)C)c1C#N`: 158 to 160 °C. `COc1cccc(-c2ccccc2C(=O)Nc2ccc(Cl)cc2)c1`: the melting point fell in the range of 123 to 124 °C.

`CCC(OC1OC(COC(C)=O)C(OC(C)=O)C(OC(C)=O)C1OC(C)=O)C(=O)O` (stereo not drawn) had a melting point of 98 to 100 °C. The compound `CN(C(=O)COc1cc(-c2ccccc2)nc2ccccc12)C(C)(C)C` gave a melting point of 90 °C.

The compound `CCOC(=O)CN1C(=O)C(Br)CCc2ccccc21` (stereo not drawn) displayed a melting point of 114 to 116 °C. As for `Cc1cc(C)nc(NC(=O)NS(=O)(=O)c2ccccc2C(=O)N(C)C)n1`, the melting point was in the range of 166 to 168 °C. Compound `NS(=O)(=O)c1ccc(-c2oc3cc(F)ccc3c(=O)c2-c2ccccc2F)cc1` returned a melting point of 188 °C.

The compound `Nc1ccc(S(=O)(=O)C(F)(F)C(F)Cl)cc1Cl` (stereo not drawn) came in with a melting point of 98 to 99 °C.

Compound `COc1cc(Nc2c(C#N)cnc3cc(-c4ccc(CN5CCOCC5)cn4)ccc23)c(Cl)cc1Cl` yielded a melting point of 220 to 222 °C. The same measure for `CC(=O)N(C)c1cccc(-c2ccnc3c(C(=O)c4cccs4)cnn23)c1`: 190 to 192 °C. `O=C(O)c1cc(Cl)ccc1S` yielded a melting point of 192 to 194 °C. On to `CCCN(c1ccc(C(F)(F)F)cc1)c1nc(=O)c2cccnc2s1`, for which the melting point is 216 to 217 °C. Compound `O=C(NCCCCC(NC(=O)OCC1c2ccccc2-c2ccccc21)C(=O)Oc1c(F)c(F)c(F)c(F)c1F)OCC1c2ccccc2Oc2ccccc21` (stereo not drawn) had a melting point of 150 to 152 °C. The same measure for `CCOC(=O)N1CCN(C(=S)Cl)CC1`: 107 to 111 °C; for `CC(C)(C)ON=C1CC(=NOC(C)(C)C)c2ccccc2-c2ccccc21`: 181 to 183 °C. For `NNc1ccc(C2CCCCC2)cc1` the value was 115 to 116 °C; for `CC(C)CC(C(=O)O)c1cc(Cl)c(-c2ccc(C(F)(F)F)cc2)c(OCC2CC2)c1` (stereo not drawn), 115 to 116 °C. In turn, `C#CC(C)OS(=O)(=O)c1ccc(C)cc1` (stereo not drawn) registered a melting point of 49 to 51 °C. Take `CCCCCCCCCCc1nc(N(C)C)nc(OC)c1Br`: the melting point fell in the range of 45 to 46 °C.

For `CC(C)(C)OC(=O)NOC(=O)OC(C)(C)C`, the melting point was found to be 52 °C. With `CS(=O)(=O)c1ccc(NCCc2[nH]c3c(cnc4cc(Cl)ccc43)c2C=NNc2ccccc2)cc1`, the melting point was 185 to 186 °C.

For the compound `COC(=O)c1cc(-c2ccc(OC)c(F)c2)nn(CC(C)C)c1=O`, the melting point is 119 to 121 °C. `COc1ccc(/C(=C\C=C\C(=O)O)C2CC2)cc1` showed a melting point of 154 to 156 °C.

`O=C1CCC(N2Cc3c(OCc4ccc5occc5c4)cccc3C2=O)C(=O)N1` (stereo not drawn) registered a melting point of 168 to 170 °C. For `COc1ncc(C(=O)Nc2c(F)cncc2F)cc1OC1CCCC1`, the melting point fell in the range of 210 to 211 °C. For `OC1CSC(Oc2cccnc2-c2cccnc2)C(O)C1O` (stereo not drawn), the melting point stood at 80 °C. For `CCOC(=O)c1sc(N)nc1-c1cccc(C)c1` the value was 183 to 184 °C. The compound `COc1ccc(Cn2nnnc2C(=O)Nc2cc(Cl)cc(NC(=O)c3nnnn3Cc3ccc(OC)cc3)n2)cc1` returned a melting point of 201 to 203 °C.

On to `O=C1NC(=O)C(S(=O)(=O)c2cccc3c(Br)cccc23)S1` (stereo not drawn), for which the melting point was in the range of 189 to 190 °C. The same measure for `Cc1csc(N=CN(C)C)n1`: 54 to 56 °C; for `C[C@H](NS(=O)(=O)c1ccc2ccccc2c1)C(=O)Cl`: 134 to 136 °C; for `COc1ccc(S(=O)(=O)c2cccs2)c(Cl)c1Cl`: 190 °C. For `Nc1sc(-c2cccc(F)c2)c(CN(C2CCCCC2)C2CCCCC2)c1C(=O)c1ccc(Cl)cc1` the value was 205 to 207 °C; for `COc1ccc(-c2nc(C3=NNC(=O)CC3)sc2-c2ccc(OC)cc2)cc1`, 242 to 247 °C. The same measure for `COC(=O)c1ccc(Cn2cnc3c(Cl)nc(N)nc32)cc1`: 150 to 155 °C; for `CCN(CC)c1ccc(/C=C/c2c(F)cccc2F)cc1`: 70 to 71 °C. `O=P(Cc1ccc2ccccc2c1-c1c(CP(=O)(c2ccc(F)cc2)c2ccc(F)cc2)ccc2ccccc12)(c1ccc(F)cc1)c1ccc(F)cc1` gave a melting point of 211 to 214 °C.

In turn, `COC(=O)C(Oc1nc(OC)cc(OC)n1)C(OC)(c1ccccc1)c1ccccc1` (stereo not drawn) yielded a melting point of 81 °C.

Consider `CC(=O)Oc1ccc(C(=O)Nc2ncc(S(C)(=O)=O)s2)cc1`, for which the melting point was 280 to 281 °C. The same measure for `CCN(c1nc(NCCO)nc(N(CC)C2CC(C)(C)NC(C)(C)C2)n1)C1CC(C)(C)NC(C)(C)C1`: 184 to 185 °C; for `O=S(=O)(Nc1cccc2c(Cl)c[nH]c12)c1ccc(CCCn2ccnc2)cc1`: 86 to 90 °C; for `CC(C)(CCCOc1ccccc1)C(=O)O`: 151 to 152 °C. The same measure for `CCC(O)(CC)c1cccc2[nH]c(=O)n(C)c12`: 199 to 201 °C. For `CN(C)c1ccc(-c2cc(-c3ccccc3)nc(-c3ccccc3)c2)cc1` the value was 128 to 129 °C; for `CCNC(=S)NC1CCCc2ccccc21` (stereo not drawn), 120 to 122 °C; for `Cn1ncc2cc3ncc(-c4ccc(Cl)s4)nc3cc21`, 225 to 227 °C. Compound `COc1cccc(CC(=O)O)c1OCCCc1cn(-c2ccc(C#N)cn2)nc1C(C)C` had a melting point of 144 to 145 °C. The compound `O=C1CCCC2ON(Cc3ccccc3)C3C(CSC23)N1` (stereo not drawn) showed a melting point of 161 to 162 °C. The same measure for `CC(Oc1ccc(C2CCOCC2)cc1)C(=O)O` (stereo not drawn): 156 °C; for `COc1nc(N)nc2oc(C)cc12`: 173 to 175 °C; for `Cc1cccc(CN2NCC(=O)NC2=O)c1`: 158 °C.

As to `Clc1ccc(Cc2cccc(-c3ncc4c(n3)CCCC4)n2)cn1`, the melting point fell in the range of 115 to 120 °C. `CCCCc1nc(Cl)c(CC(=O)OCC)c(Cc2ccc(C(=O)OC)cc2)n1` showed a melting point of 78 °C.

`COc1nc(Br)cnc1NS(=O)(=O)c1cccc2c(N(C)C)cccc12` displayed a melting point of 166 to 167 °C.

As to `CN(C(=O)OC(C)(C)C)c1cc(OCc2ccccc2)ccc1N`, the melting point lay within 86 to 89 °C. For `CCOC(=O)c1c([N+](=O)[O-])c(-c2ccc(Cl)cc2)n(OC)c1C(F)(F)F` the value was 90 to 92 °C; for `CCOC(=O)C1=C(CO)NC=C(C(=O)OC)C1c1ccccc1Cl` (stereo not drawn), 187 to 188 °C. For `CC(C)n1cc(-c2nc(C(N)=O)c(N)nc2-c2ccc(Cl)cc2)ccc1=O` the value was 246 °C. For `CCCCCCCCCCOc1ccc(OCc2ccccc2)c(C(=O)O)c1` the value was 63 to 65 °C. As for `COc1cc(COc2ccc3nc(NC(=O)Oc4ccccc4)cn3n2)cc(OC)c1OC`, the melting point fell in the range of 210 to 213 °C. Take `CN[C@@]1(C)CCN(c2c(-c3ccccc3)c(C)c(C#N)c3nc(C(=O)N(C)C)oc23)C1`: the melting point fell in the range of 172 to 174 °C. For `O=c1oc(=O)c2ccc3c4ccccc4sc4ccc1c2c43` the value was 315 to 317 °C; for `O=C(Nc1cccc(C(F)(F)F)c1)C(F)(F)F`, 69 °C; for `COc1cc2c(cc1OC)N(C(=O)c1ccc(-c3ccccc3OC)c(C)c1)Cc1ccc(C(=O)N(C)CC(O)C(O)C(O)C(O)CO)n1C2` (stereo not drawn), 110 to 120 °C. For `COc1ccc(C(=O)CI)cc1` the value was 63 to 65 °C; for `CCN(CC)CCOC1CCC2C3CCc4cc(OC)ccc4C3CCC12CC` (stereo not drawn), 66 to 67 °C; for `FC(F)(F)C(/C=C/c1ccc(-n2cncn2)cc1)c1cc(Cl)cc(Cl)c1` (stereo not drawn), 93 to 97 °C. For `CCC(C)(N=NC(C)(CC)NC(=O)NNC(C)(C)C)NC(=O)NNC(C)(C)C` (stereo not drawn) the value was 155 to 160 °C; for `S=C1Nc2ccccc2N2CCN(c3ccccc3)CCN12`, 202 to 206 °C; for `CCC1(CCCCCl)C(=O)Nc2cc(F)c(Cl)cc21` (stereo not drawn), 131 to 133 °C. For `CC(C)N1CCOC(COc2cccc3c2CC=C3)C1` (stereo not drawn), the melting point lay in the range of 107 to 109 °C. The same measure for `CCn1c(N)c(-c2nccn2COCC[Si](C)(C)C)c(=O)c2ccc(-c3ccc(C(C)C(=O)O)cc3)nc21` (stereo not drawn): 248 °C; for `c1ccc2c(C3CN4CCC3CC4)c[nH]c2c1` (stereo not drawn): 214 to 216 °C; for `O=C(O)c1cn([C@@H]2C[C@@H]2F)c2c(F)c(N3C[C@@H]4CCCN[C@@H]4C3)c(F)cc2c1=O`: 271 to 273 °C.
